Read-outs that look alike come from different tables or passages of the source.
Experiments:
hGIPR = target: T1, hGIPR (Homo sapiens, UniProt P48546); assay: hGIPR CreLuc assay in 0.5% and 100% plasma (CHO CRE-luciferase reporter cells); format: cell-based
T1 construct: expressed in transfected cells; host or cells: CHO CRE-luciferase reporter cells
T1 sequence (P48546 22-466): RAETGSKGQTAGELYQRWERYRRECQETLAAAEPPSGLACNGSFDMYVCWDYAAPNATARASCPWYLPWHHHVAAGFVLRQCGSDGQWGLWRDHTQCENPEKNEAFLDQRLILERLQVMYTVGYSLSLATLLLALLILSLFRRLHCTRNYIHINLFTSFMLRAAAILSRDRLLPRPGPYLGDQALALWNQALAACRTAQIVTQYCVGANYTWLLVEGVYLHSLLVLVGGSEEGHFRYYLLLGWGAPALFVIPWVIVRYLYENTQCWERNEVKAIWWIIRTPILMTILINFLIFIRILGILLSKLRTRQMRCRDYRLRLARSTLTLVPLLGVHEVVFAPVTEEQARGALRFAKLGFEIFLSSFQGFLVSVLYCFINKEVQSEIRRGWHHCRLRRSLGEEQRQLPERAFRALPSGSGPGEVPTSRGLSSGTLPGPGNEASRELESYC

[1] = Solubility in 0.1 M phosphate buffer at pH 7; format: physicochemical; conditions: 0.1 M phosphate buffer at pH 7, 10 mg/mL final peptide concentration, shaking 2 hours at room temperature, peptides as TFA-salts, measured sample pH 6.5-7.0
hGLP1R = target: T2, hGLP1R (Homo sapiens, UniProt P43220); assay: hGLP1R CreLuc assay in 0.5% and 100% plasma (HEK-293 CRE-luciferase reporter cells); format: cell-based; conditions: HEK-293 reporter cells
T2 construct: expressed in transfected cells; host or cells: HEK-293 CRE-luciferase reporter cells

[2] = 0.5% human plasma, read-out: hGIPR 0.5% hP
[3] = 0.5% human plasma, read-out: hGLP1R 0.5% hP

T2 sequence (P43220 24-463): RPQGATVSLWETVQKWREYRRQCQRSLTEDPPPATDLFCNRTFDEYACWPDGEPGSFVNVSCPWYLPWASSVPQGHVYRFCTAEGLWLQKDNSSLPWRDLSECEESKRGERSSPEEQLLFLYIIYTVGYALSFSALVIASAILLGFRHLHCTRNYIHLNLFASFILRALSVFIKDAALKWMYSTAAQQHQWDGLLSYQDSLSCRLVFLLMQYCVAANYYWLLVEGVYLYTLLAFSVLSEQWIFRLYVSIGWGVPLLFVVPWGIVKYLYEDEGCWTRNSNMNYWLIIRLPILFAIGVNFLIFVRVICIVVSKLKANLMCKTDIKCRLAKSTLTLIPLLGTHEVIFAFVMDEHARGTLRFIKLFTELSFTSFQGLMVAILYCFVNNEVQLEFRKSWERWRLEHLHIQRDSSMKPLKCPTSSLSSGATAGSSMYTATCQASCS

CC[C@H](C)[C@H](NC(=O)[C@H](CC(C)C)NC(=O)[C@H](Cc1c[nH]cn1)NC(=O)[C@H](CCCNC(=N)N)NC(=O)[C@@H](NC(=O)[C@H](Cc1ccccc1)NC(=O)[C@H](C)NC(=O)C(C)(C)NC(=O)[C@H](CCC(N)=O)NC(=O)[C@H](C)NC(=O)[C@H](CCC(N)=O)NC(=O)[C@H](C)NC(=O)[C@H](CC(=O)O)NC(=O)[C@H](CC(C)C)NC(=O)C(C)(C)NC(=O)[C@@H](NC(=O)[C@H](CO)NC(=O)[C@H](Cc1ccc(O)cc1)NC(=O)[C@H](CC(=O)O)NC(=O)[C@H](CO)NC(=O)[C@@H](NC(=O)[C@H](Cc1ccccc1)NC(=O)[C@@H](NC(=O)CNC(=O)[C@H](CCC(=O)O)NC(=O)C(C)(C)NC(=O)[C@@H](N)Cc1ccc(O)cc1)[C@@H](C)O)[C@@H](C)O)[C@@H](C)CC)C(C)C)C(=O)N[C@@H](CC(N)=O)C(=O)N[C@@H](CCCCNC(=O)[C@@H](N)CCCCNC(=O)CC[C@H](NC(=O)CC[C@H](NC(=O)CC[C@H](NC(=O)CC[C@H](NC(=O)CC[C@H](NC(=O)CC[C@H](NC(=O)CCCCCCCCCCCCCCCCC(=O)O)C(=O)O)C(=O)O)C(=O)O)C(=O)O)C(=O)O)C(=O)O)C(=O)NC(C)(C)C(=O)N[C@H](C(=O)N[C@@H](CCCNC(=N)N)C(=O)N[C@@H](CCC(N)=O)C(=O)N[C@@H](CCCNC(=N)N)C(=O)N[C@@H](Cc1ccc(O)cc1)C(N)=O)[C@@H](C)O [Compound 55, Y-Aib-E-G-T-F-T-S-D-Y-S-I-Aib-L-D-A-Q-A-Q-Aib-A-F-V-R-H-L-I-N-K(1,3)-Aib-T-R-Q-R-Y-NH2.C18DA-gGlu-gGlu-gGlu-gGlu-gGlu-gGlu-eLys(1,2)]
EC50 (hGIPR; [2]): 0.4 nM
solubility at 2 h [1]: 8800 µg/mL
EC50 (hGLP1R; [3]): 0.4 nM

CC[C@H](C)[C@H](NC(=O)[C@H](CC(C)C)NC(=O)[C@H](Cc1c[nH]cn1)NC(=O)[C@H](CCCNC(=N)N)NC(=O)[C@@H](NC(=O)[C@H](Cc1ccccc1)NC(=O)[C@H](CCC(=O)O)NC(=O)C(C)(C)NC(=O)[C@H](CCC(N)=O)NC(=O)[C@H](C)NC(=O)[C@H](CCC(N)=O)NC(=O)[C@H](CCCCN)NC(=O)[C@H](CCC(=O)O)NC(=O)[C@H](CC(C)C)NC(=O)C(C)(C)NC(=O)[C@@H](NC(=O)[C@H](CO)NC(=O)[C@H](Cc1ccc(O)cc1)NC(=O)[C@H](CC(=O)O)NC(=O)[C@H](CO)NC(=O)[C@@H](NC(=O)[C@H](Cc1ccccc1)NC(=O)[C@@H](NC(=O)CNC(=O)[C@H](CCC(=O)O)NC(=O)C(C)(C)NC(=O)[C@@H](N)Cc1ccc(O)cc1)[C@@H](C)O)[C@@H](C)O)[C@@H](C)CC)C(C)C)C(=O)N[C@@H](CC(N)=O)C(=O)N[C@@H](CCCCNC(=O)CC[C@H](NC(=O)CC[C@H](NC(=O)CC[C@H](NC(=O)CC[C@H](NC(=O)CC[C@H](NC(=O)CC[C@H](NC(=O)CCCCCCCCCCCCCCCCC(=O)O)C(=O)O)C(=O)O)C(=O)O)C(=O)O)C(=O)O)C(=O)O)C(=O)NC(C)(C)C(=O)N[C@H](C(=O)N[C@@H](CCCNC(=N)N)C(=O)N[C@@H](CCC(N)=O)C(=O)N[C@@H](CCCNC(=N)N)C(=O)N[C@@H](Cc1ccc(O)cc1)C(N)=O)[C@@H](C)O [Compound 56, Y-Aib-E-G-T-F-T-S-D-Y-S-I-Aib-L-E-K-Q-A-Q-Aib-E-F-V-R-H-L-I-N-K(1,3)-Aib-T-R-Q-R-Y-NH2.C18DA-gGlu-gGlu-gGlu-gGlu-gGlu-gGlu(1,2)]
EC50 (hGIPR; [2]): 0.4 nM
EC50 (hGIPR; 100% human plasma, read-out: hGIPR 100% hP): 19.3 nM
solubility ([1]; read-out: Solubility): 4400 µg/mL
EC50 (hGLP1R; [3]): 0.7 nM
EC50 (hGLP1R; 100% human plasma, read-out: hGLP1R 100% hP): 7.1 nM

Source: US20250382344A1, “Soluble GLP1/GIP/NPY2 Receptor Triple Agonists” (Boehringer Ingelheim International GmH, priority 2024, published 2025)
